Laboratory results from patent US10758534B2 (Vertex Pharmaceuticals Incorporated, priority 2014, dated 2020).

What follows are compounds tested against T1, F508del (Homo sapiens, UniProt P13569, DEL508-508) (assay: Protocol 1: membrane potential optical assay (FLIPR III, voltage sensing dye), identification of potentiator compounds). Settings: Table 3, compounds of Table 1.
T1 construct: expressed in transfected cells
Assay type: cell-based
Method in brief: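 Membrane potential in forskolin-activated, temperature-rescued F508del NIH 3T3 cells is followed with a voltage-sensing dye on FLIPR III. A chloride ion gradient created at the single addition step provides the driving force, after prior compound treatment.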

T1 sequence (P13569 with tags, fused parts or gaps DEL508-508): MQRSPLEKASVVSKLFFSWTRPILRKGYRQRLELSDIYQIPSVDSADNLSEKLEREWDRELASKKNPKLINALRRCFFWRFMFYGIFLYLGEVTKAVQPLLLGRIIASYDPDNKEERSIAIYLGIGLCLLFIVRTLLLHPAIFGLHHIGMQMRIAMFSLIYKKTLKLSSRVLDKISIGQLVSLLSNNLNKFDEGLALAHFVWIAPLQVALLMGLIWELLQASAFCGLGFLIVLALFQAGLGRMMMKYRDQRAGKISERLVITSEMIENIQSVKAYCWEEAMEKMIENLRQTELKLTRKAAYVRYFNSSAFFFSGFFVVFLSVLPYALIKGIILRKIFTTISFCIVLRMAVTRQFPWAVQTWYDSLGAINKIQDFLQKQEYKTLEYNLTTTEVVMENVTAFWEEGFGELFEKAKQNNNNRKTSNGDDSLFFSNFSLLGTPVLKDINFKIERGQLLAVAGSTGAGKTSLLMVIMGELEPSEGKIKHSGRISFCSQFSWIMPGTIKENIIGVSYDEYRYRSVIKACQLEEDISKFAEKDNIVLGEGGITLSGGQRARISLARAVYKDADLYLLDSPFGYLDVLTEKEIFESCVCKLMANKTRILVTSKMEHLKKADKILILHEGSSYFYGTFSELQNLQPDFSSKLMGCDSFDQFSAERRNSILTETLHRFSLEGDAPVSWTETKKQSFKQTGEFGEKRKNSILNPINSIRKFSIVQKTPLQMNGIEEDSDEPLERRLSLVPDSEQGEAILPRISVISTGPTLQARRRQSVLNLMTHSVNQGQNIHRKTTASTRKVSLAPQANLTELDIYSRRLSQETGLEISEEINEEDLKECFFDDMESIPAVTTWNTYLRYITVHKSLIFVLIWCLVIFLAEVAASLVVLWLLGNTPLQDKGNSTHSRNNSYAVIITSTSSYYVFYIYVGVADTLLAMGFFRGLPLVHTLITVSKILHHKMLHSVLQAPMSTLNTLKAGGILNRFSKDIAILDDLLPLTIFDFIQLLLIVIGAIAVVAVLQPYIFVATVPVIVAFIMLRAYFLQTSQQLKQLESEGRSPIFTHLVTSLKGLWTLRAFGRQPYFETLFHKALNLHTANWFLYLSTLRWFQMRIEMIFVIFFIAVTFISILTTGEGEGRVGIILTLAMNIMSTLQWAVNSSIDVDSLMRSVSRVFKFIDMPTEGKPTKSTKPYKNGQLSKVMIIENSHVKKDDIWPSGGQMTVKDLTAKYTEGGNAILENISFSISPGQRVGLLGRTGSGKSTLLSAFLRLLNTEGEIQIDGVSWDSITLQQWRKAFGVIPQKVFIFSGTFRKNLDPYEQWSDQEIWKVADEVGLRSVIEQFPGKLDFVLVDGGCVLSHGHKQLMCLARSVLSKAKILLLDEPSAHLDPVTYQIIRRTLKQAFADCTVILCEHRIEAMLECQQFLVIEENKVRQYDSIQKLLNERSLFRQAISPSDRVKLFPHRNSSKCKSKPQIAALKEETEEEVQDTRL

| EC30 | Compound |
| --- | --- |
| ++ (“++” means between 3 uM and 10 uM) | COc1ccc(-c2ccc(C(=O)NS(=O)(=O)c3cccnc3N)c(N3C[C@@H](C)CC3(C)C)n2)c(CO)c1 [Compound 1707, N-[(2-amino-3-pyridyl)sulfonyl]-6-[2-(hydroxymethyl)-4-methoxy-phenyl]-2-[(4S)-2,2,4-trimethylpyrrolidin-1-yl]pyridine-3-carboxamide] |
| +++ (“+++” means <3 uM) | CC1CN(c2ncccc2C(=O)NS(=O)(=O)c2cccc(N3CCC(c4ccccc4)C3)n2)C(C)(C)C1 (centres unmarked) [Compound 1708, N—[[6-(3-phenylpyrrolidin-1-yl)-2-pyridyl]sulfonyl]-2-(2,2,4-trimethylpyrrolidin-1-yl)pyridine-3-carboxamide] |
| +++ (“+++” means <3 uM) | CC(C)Oc1ccn(-c2ccc(C(=O)NS(=O)(=O)c3cccc(N)n3)c(N3C[C@@H](C)CC3(C)C)n2)n1 [Compound 1709, N-[(6-amino-2-pyridyl)sulfonyl]-6-(3-isopropoxypyrazol-1-yl)-2-[(4S)-2,2,4-trimethylpyrrolidin-1-yl]pyridine-3-carboxamide] |
| +++ (“+++” means <3 uM) | C[C@@H]1CN(c2nc([C@H]3CC[C@H](C(F)(F)F)CC3)ccc2C(=O)NS(=O)(=O)c2ccc[nH]c2=O)C(C)(C)C1 [Compound 1710, N-[(2-oxo-1H-pyridin-3-yl)sulfonyl]-6-[4-(trifluoromethyl)cyclohexyl]-2-[(4S)-2,2,4-trimethylpyrrolidin-1-yl]pyridine-3-carboxamide] |
| +++ (“+++” means <3 uM) | CCCN(C)c1cccc(S(=O)(=O)NC(=O)c2cccnc2N2CC(C)CC2(C)C)n1 (centres unmarked) [Compound 1711, N—[[6-[methyl(propyl)amino]-2-pyridyl]sulfonyl]-2-(2,2,4-trimethylpyrrolidin-1-yl)pyridine-3-carboxamide] |
| +++ (“+++” means <3 uM) | C[C@@H]1CN(c2nc(-c3ccc(O)cc3)ccc2C(=O)NS(=O)(=O)c2cccnc2N)C(C)(C)C1 [Compound 1712, N-[(2-amino-3-pyridyl)sulfonyl]-6-(4-hydroxyphenyl)-2-[(4S)-2,2,4-trimethylpyrrolidin-1-yl]pyridine-3-carboxamide] |
| +++ (“+++” means <3 uM) | Cc1cccc(-c2ccc(C(=O)NS(=O)(=O)c3cccnc3N)c(N3C[C@@H](C)CC3(C)C)n2)c1C [Compound 1713, N-[(2-amino-3-pyridyl)sulfonyl]-6-(2,3-dimethylphenyl)-2-[(4S)-2,2,4-trimethylpyrrolidin-1-yl]pyridine-3-carboxamide] |
| ++ (“++” means between 3 uM and 10 uM) | C[C@@H]1CN(c2nc(-c3cnc4[nH]ccc4c3)ccc2C(=O)NS(=O)(=O)c2cccnc2N)C(C)(C)C1 [Compound 1714, N-[(2-amino-3-pyridyl)sulfonyl]-6-(1H-pyrrolo[2,3-b]pyridin-5-yl)-2-[(4S)-2,2,4-trimethylpyrrolidin-1-yl]pyridine-3-carboxamide] |
| +++ (“+++” means <3 uM) | CCOCCOCCOc1ncc(-c2ccc(C(=O)NS(=O)(=O)c3cccc(N)n3)c(N3C[C@@H](C)CC3(C)C)n2)cc1C [Compound 1715, N-[(6-amino-2-pyridyl)sulfonyl]-6-[6-[2-(2-ethoxyethoxy)ethoxy]-5-methyl-3-pyridyl]-2-[(4S)-2,2,4-trimethylpyrrolidin-1-yl]pyridine-3-carboxamide] |
| ++ (“++” means between 3 uM and 10 uM) | C[C@@H]1CN(c2nc(-c3cc(F)cc(F)c3)ccc2C(=O)NS(=O)(=O)N2CC[C@H](N)C2)C(C)(C)C1 [Compound 1716, N-[(3S)-3-aminopyrrolidin-1-yl]sulfonyl-6-(3,5-difluorophenyl)-2-[(4S)-2,2,4-trimethylpyrrolidin-1-yl]pyridine-3-carboxamide] |
| +++ (“+++” means <3 uM) | COc1ccc(CN(C)c2cccc(S(=O)(=O)NC(=O)c3cccnc3N3CC(C)CC3(C)C)n2)cc1 (centres unmarked) [Compound 1717, N—[[6-[(4-methoxyphenyl)methyl-methyl-amino]-2-pyridyl]sulfonyl]-2-(2,2,4-trimethylpyrrolidin-1-yl)pyridine-3-carboxamide] |
| +++ (“+++” means <3 uM) | COc1cc(C)cc(Oc2cccc(S(=O)(=O)NC(=O)c3cccnc3N3CC(C)CC3(C)C)n2)c1 (centres unmarked) [Compound 1719, N—[[6-(3-methoxy-5-methyl-phenoxy)-2-pyridyl]sulfonyl]-2-(2,2,4-trimethylpyrrolidin-1-yl)pyridine-3-carboxamide] |
| +++ (“+++” means <3 uM) | CC1CN(c2ncccc2C(=O)NS(=O)(=O)c2cccc(Oc3ccccc3C#N)n2)C(C)(C)C1 (centres unmarked) [Compound 1720, N—[[6-(2-cyanophenoxy)-2-pyridyl]sulfonyl]-2-(2,2,4-trimethylpyrrolidin-1-yl)pyridine-3-carboxamide] |
| +++ (“+++” means <3 uM) | CC1CN(c2ncc(-c3cc(Cl)cc(Cl)c3)cc2C(=O)NS(=O)(=O)c2cccc(N)n2)C(C)(C)C1 (centres unmarked) [Compound 1721, N-[(6-amino-2-pyridyl)sulfonyl]-5-(3,5-dichlorophenyl)-2-(2,2,4-trimethylpyrrolidin-1-yl)pyridine-3-carboxamide] |
| +++ (“+++” means <3 uM) | CC1CN(c2ncccc2C(=O)NS(=O)(=O)c2cccc(Nc3ccc(C(C)C)cc3)n2)C(C)(C)C1 (centres unmarked) [Compound 1722, N—[[6-(4-isopropylanilino)-2-pyridyl]sulfonyl]-2-(2,2,4-trimethylpyrrolidin-1-yl)pyridine-3-carboxamide] |
| +++ (“+++” means <3 uM) | CC(C)COc1cc(F)cc(-c2ccc(C(=O)NS(=O)(=O)c3cccc(N)n3)c(N3CC[C@H](C)[C@H](C)C3)n2)c1 [Compound 1724] |
| ++ (“++” means between 3 uM and 10 uM) | C[C@@H]1CN(c2nc(-c3ccccc3)ccc2C(=O)NS(=O)(=O)N2CC[C@H](N)C2)C(C)(C)C1 [Compound 1725, N-[(3S)-3-aminopyrrolidin-1-yl]sulfonyl-6-phenyl-2-[(4S)-2,2,4-trimethylpyrrolidin-1-yl]pyridine-3-carboxamide] |
| +++ (“+++” means <3 uM) | COc1ccc(/C=C/c2cnc(N3CC(C)CC3(C)C)c(C(=O)NS(=O)(=O)c3cccc(N)n3)c2)cc1 (centres unmarked) [Compound 1726, N-[(6-amino-2-pyridyl)sulfonyl]-5-[(E)-2-(4-methoxyphenyl)vinyl]-2-(2,2,4-trimethylpyrrolidin-1-yl)pyridine-3-carboxamide] |
| +++ (“+++” means <3 uM) | CCOc1ncc(-c2ccc(C(=O)NS(=O)(=O)c3cccc(N)n3)c(N3C[C@@H](C)CC3(C)C)n2)cc1C [Compound 1727, N-[(6-amino-2-pyridyl)sulfonyl]-6-(6-ethoxy-5-methyl-3-pyridyl)-2-[(4S)-2,2,4-trimethylpyrrolidin-1-yl]pyridine-3-carboxamide] |
| +++ (“+++” means <3 uM) | CC[C@H](C)Oc1ncc(-c2ccc(C(=O)NS(=O)(=O)c3cccc(N)n3)c(N3C[C@@H](C)CC3(C)C)n2)cc1C [Compound 1728, N-[(6-amino-2-pyridyl)sulfonyl]-6-[5-methyl-6-[(1 S)-1-methylpropoxy]-3-pyridyl]-2-[(4S)-2,2,4-trimethylpyrrolidin-1-yl]pyridine-3-carboxamide] |
| +++ (“+++” means <3 uM) | CC(Oc1nc(N2C[C@@H](C)CC2(C)C)c(C(=O)NS(=O)(=O)c2cccc(N)n2)cc1F)C1CCCCC1 (stereo partly drawn) [Compound 1730, N-[(6-amino-2-pyridyl)sulfonyl]-6-(1-cyclohexylethoxy)-5-fluoro-2-[(4S)-2,2,4-trimethylpyrrolidin-1-yl]pyridine-3-carboxamide] |
| +++ (“+++” means <3 uM) | Cc1ccc(-c2ccc(C(=O)NS(=O)(=O)c3cccnc3N)c(N3C[C@@H](C)CC3(C)C)n2)c(O)c1 [Compound 1731, N-[(2-amino-3-pyridyl)sulfonyl]-6-(2-hydroxy-4-methyl-phenyl)-2-[(4S)-2,2,4-trimethylpyrrolidin-1-yl]pyridine-3-carboxamide] |
| ++ (“++” means between 3 uM and 10 uM) | CC1CN(c2ncccc2C(=O)NS(=O)(=O)c2cccc(N3CCN(C4CCCC4)CC3)n2)C(C)(C)C1 (centres unmarked) [Compound 1733, N—[[6-(4-cyclopentylpiperazin-1-yl)-2-pyridyl]sulfonyl]-2-(2,2,4-trimethylpyrrolidin-1-yl)pyridine-3-carboxamide] |
| +++ (“+++” means <3 uM) | CC1CN(c2ncccc2C(=O)NS(=O)(=O)c2cccc(OCC3CCNC3)n2)C(C)(C)C1 (centres unmarked) [Compound 1734, N—[[6-(pyrrolidin-3-ylmethoxy)-2-pyridyl]sulfonyl]-2-(2,2,4-trimethylpyrrolidin-1-yl)pyridine-3-carboxamide] |
| +++ (“+++” means <3 uM) | COc1ccccc1-c1cnc(N2CC(C)CC2(C)C)c(C(=O)NS(=O)(=O)c2cccc(N)n2)c1 (centres unmarked) [Compound 1735, N-[(6-amino-2-pyridyl)sulfonyl]-5-(2-methoxyphenyl)-2-(2,2,4-trimethylpyrrolidin-1-yl)pyridine-3-carboxamide] |
| ++ (“++” means between 3 uM and 10 uM) | Cc1ccc(C)c(-c2ccc(C(=O)NS(=O)(=O)N3CC[C@H](N)C3)c(N3C[C@@H](C)CC3(C)C)n2)c1 [Compound 1736, N-[(3S)-3-aminopyrrolidin-1-yl]sulfonyl-6-(2,5-dimethylphenyl)-2-[(4S)-2,2,4-trimethylpyrrolidin-1-yl]pyridine-3-carboxamide] |
| +++ (“+++” means <3 uM) | CC(C)COc1cc(F)cc(-c2ccc(C(=O)NS(=O)(=O)c3cccc(N)n3)c(N3C[C@H](C)CC34CCC4)n2)c1 [Compound 1737] |

| Compound | EC30 |
| --- | --- |
| CC1CN(c2ncccc2C(=O)NS(=O)(=O)c2cccc(OC(C)(C)C)n2)C(C)(C)C1 (centres unmarked) [Compound 1718, N-[(6-tert-butoxy-2-pyridyl)sulfonyl]-2-(2,2,4-trimethylpyrrolidin-1-yl)pyridine-3-carboxamide] | +++ (“+++” means <3 uM) |
| CC(C)COc1cc(F)cc(-c2ccc(C(=O)NS(=O)(=O)c3cccc(N)n3)c(NCC3(CC(C)(C)O)CC3)n2)c1 [Compound 1723, N-[(6-amino-2-pyridyl)sulfonyl]-6-(3-fluoro-5-isobutoxy-phenyl)-2-[[1-(2-hydroxy-2-methyl-propyl)cyclopropyl]methylamino]pyridine-3-carboxamide] | +++ (“+++” means <3 uM) |
